Where “and” joins values, the source holds several entries; their conditions need not be identical. Identical values can stand only once. Counter-ions that a name gives are not always drawn. Like-named read-outs stand apart in the source and are kept apart here.
Experiments:
factor Xa = factor Xa (Bos taurus, UniProt P00743); experiment: inhibition of factor Xa, dissociation constant Ki; type: biochemical; conditions: Table 1
Protocol: (§1) The biological activity of the compounds of the present invention was determined in vitro as well as in vivo.

thrombin [1] = target: T1, thrombin (Bos taurus, UniProt P00735)
tPA = tPA (Homo sapiens, UniProt P00750); experiment: inhibition of tPA, dissociation constant Ki
plasmin = plasmin (Homo sapiens, UniProt P00747); experiment: inhibition of plasmin, dissociation constant Ki
factor XIIa = target: T2, factor XIIa (Homo sapiens, UniProt P00748); experiment: inhibition of factor XIIa, dissociation constant Ki
T2 sequence (P00748 373-615 limits assumed): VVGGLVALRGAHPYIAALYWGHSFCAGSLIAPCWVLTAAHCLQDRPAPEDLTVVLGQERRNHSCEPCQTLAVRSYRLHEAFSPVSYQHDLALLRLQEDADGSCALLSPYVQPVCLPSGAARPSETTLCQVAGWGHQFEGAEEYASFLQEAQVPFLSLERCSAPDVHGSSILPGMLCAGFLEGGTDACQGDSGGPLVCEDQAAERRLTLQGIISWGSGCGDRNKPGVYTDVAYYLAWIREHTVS

plasma kallikrein = plasma kallikrein (Homo sapiens, UniProt P03952); experiment: inhibition of plasma kallikrein, dissociation constant Ki
glandular kallikrein = glandular kallikrein (Sus scrofa, UniProt P00752); experiment: inhibition of glandular kallikrein, dissociation constant Ki
trypsin = target: T3, trypsin (Bos taurus, UniProt P00760); experiment: inhibition of trypsin, dissociation constant Ki; type: biochemical; design: thrombin and the related enzymes trypsin, plasmin, factor Xa, factor XIIa; conditions: Table 1; read-out: Ki, Trypsin
T3 sequence (P00760 24-246): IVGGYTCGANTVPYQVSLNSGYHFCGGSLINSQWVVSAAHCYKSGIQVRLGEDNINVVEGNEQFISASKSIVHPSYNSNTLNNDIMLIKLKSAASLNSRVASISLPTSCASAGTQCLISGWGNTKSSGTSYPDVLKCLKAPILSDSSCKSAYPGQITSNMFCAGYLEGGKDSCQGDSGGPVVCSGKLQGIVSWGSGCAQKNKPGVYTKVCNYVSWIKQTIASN
Protocol: as §1

thrombin [2] = target: T1, thrombin; experiment: biochemical
[3] = plasma concentration in rats after intravenous administration; type: in vivo; conditions: rat
Protocol: (§2) A physiological NaCl solution of the substance to be tested was submitted to high pressure liquid chromatography (HPLC) in order to determine its characteristic substance-specific retention time with the chosen test conditions.
(§3) The substance to be tested was diluted in vitro in rat plasma. This solution was also submitted to HPLC to see whether the characteristic peak of the substance once again appeared at the substance-specific retention time.
(§4) Blood samples were taken at time intervals of 15 minutes, from which plasma samples were prepared by centrifugation; those samples were also submitted to HPLC to see whether the characteristic peak of the substance appeared again at the substance-specific retention time.
(§5) After administration, blood samples were taken from the test animals at time intervals from 2 to maximally 360 minutes and the blood level of the compounds to be tested was determined by HPLC.

[4] = plasma concentration in rats after oral administration; type: in vivo; conditions: rat
Protocol: as §2, §3, §4, §5

[5] = plasma concentration in rats after rectal administration; type: in vivo; conditions: rat
[6] = test system: coagulation in human plasma; experiment: thrombin time (TT) in human plasma
[7] = test system: coagulation in human plasma; experiment: prothrombin time (PT, Quick value) in human plasma
[8] = test system: coagulation in human plasma; experiment: activated partial thromboplastin time (aPTT) in human plasma
[9] = read-out: Ki, Thrombin, Table 1

plasmin, sequence (P00747 581-810 limits assumed): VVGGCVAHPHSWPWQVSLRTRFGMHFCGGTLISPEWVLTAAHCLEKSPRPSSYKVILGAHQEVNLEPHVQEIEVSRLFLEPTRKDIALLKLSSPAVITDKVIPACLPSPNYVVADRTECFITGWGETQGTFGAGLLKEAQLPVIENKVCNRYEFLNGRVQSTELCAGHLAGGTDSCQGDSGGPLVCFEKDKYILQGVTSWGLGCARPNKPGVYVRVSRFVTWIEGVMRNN
plasmin, sequence (P00747 97-580 partner limits assumed): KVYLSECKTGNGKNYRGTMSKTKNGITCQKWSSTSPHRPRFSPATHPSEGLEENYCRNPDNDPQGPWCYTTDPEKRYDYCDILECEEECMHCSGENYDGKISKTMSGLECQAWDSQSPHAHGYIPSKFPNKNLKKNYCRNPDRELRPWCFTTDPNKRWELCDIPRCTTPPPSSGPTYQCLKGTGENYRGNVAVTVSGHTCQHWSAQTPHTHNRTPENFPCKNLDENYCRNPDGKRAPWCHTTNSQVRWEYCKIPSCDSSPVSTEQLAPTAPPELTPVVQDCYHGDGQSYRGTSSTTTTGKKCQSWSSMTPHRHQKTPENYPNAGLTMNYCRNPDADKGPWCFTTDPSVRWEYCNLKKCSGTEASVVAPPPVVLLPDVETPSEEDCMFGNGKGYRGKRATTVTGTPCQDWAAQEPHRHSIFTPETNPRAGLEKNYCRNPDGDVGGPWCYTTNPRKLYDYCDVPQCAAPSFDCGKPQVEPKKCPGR
factor Xa, sequence (P00743 234-492 limits assumed): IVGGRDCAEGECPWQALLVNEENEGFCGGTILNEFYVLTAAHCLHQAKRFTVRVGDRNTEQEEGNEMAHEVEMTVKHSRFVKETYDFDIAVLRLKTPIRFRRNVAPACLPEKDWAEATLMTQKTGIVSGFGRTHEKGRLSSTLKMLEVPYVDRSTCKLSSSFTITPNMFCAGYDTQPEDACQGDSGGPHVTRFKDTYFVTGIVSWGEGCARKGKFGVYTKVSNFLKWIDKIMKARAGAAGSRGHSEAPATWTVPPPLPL
factor Xa, sequence (P00743 41-180 partner limits assumed): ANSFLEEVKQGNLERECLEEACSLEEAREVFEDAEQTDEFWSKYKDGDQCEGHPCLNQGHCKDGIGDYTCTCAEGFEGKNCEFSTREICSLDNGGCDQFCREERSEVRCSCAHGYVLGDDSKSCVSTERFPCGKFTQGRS
plasma kallikrein, sequence (P03952 391-638 limits assumed, species assumed): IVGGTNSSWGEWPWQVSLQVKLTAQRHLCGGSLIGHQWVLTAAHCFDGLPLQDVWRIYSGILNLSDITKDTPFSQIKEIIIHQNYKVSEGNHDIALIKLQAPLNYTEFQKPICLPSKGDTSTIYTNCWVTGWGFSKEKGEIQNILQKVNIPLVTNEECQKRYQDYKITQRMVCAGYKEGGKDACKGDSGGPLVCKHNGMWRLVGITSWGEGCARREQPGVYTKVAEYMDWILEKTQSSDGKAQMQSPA
plasma kallikrein, sequence (P03952 20-390 partner limits assumed, species assumed): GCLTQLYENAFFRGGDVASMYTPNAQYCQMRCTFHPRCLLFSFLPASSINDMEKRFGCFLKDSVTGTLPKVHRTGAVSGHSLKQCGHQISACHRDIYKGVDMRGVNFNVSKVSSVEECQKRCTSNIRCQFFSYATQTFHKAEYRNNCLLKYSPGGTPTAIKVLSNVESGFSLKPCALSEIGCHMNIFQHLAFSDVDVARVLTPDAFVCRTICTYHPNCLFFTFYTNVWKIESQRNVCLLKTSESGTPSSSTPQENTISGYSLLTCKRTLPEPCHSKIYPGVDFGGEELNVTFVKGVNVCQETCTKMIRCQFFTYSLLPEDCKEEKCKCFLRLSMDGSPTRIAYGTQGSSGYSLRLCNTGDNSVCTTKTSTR
glandular kallikrein, sequence (P00752 8-246): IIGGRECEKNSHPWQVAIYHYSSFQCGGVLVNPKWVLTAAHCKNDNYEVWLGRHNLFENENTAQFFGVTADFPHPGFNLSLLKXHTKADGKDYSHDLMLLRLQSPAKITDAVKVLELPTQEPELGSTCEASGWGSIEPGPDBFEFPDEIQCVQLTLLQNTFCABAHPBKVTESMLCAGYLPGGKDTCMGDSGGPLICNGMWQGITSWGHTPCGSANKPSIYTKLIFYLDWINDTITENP
tPA, sequence (P00750 36-562): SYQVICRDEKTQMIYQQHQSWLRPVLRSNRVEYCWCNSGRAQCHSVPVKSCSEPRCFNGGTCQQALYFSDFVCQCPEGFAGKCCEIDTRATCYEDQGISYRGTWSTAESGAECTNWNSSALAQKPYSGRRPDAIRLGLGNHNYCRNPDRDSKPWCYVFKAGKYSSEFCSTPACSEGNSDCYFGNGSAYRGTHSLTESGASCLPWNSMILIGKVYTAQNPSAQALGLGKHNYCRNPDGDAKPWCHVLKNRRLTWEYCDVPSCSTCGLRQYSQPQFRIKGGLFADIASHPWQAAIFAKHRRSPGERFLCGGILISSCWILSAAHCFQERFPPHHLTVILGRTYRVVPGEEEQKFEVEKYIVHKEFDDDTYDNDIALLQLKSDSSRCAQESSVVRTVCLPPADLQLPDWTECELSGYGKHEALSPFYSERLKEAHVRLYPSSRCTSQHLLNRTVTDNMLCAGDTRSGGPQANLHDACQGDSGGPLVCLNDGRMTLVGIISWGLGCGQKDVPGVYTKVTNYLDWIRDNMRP

Structure (SMILES): CN(C)C(=O)N1CCN(C(=O)C(Cc2cccc(C(=N)N)c2)NS(=O)(=O)c2cccc3ccccc23)CC1 (centres unmarked) [AMD 1-Naph CO2 N(Me)2]
- Ki (factor Xa): 5.9 µM
- Ki (thrombin [1]; [9]): 0.068 µM
- Ki (tPA; read-out: Ki, tPA, Table 1): 270 µM
- Ki (plasmin; read-out: Ki, Plasmin, Table 1): 4.8 µM
- Ki (factor XIIa; read-out: Ki, Factor XIIa, Table 1): 72 µM
- Ki (plasma kallikrein; read-out: Ki, Plasma kallikr., Table 1): 37 µM
- Ki (glandular kallikrein; read-out: Ki, Gland. kallikr., Table 1): > 1000 µM
- Ki (trypsin): 0.25 µM

Structure (SMILES): CN(C)C(=O)N1CCN(C(=O)C(Cc2cccc(C(=N)N)c2)NS(=O)(=O)c2ccc3ccccc3c2)CC1 (centres unmarked) [AMD 2-Naph CO-N(Me)2]
- Ki (factor Xa): 24 µM and 22 µM
- Ki (thrombin [1]; [9]): 0.0088 µM
- Ki (thrombin [2]): 0.013 µM
- Ki (tPA): > 1000 µM
- Ki (plasmin): 6.2 µM
- Ki (plasmin; read-out: Ki, Plasmin, Table 1): 6.1 µM
- Ki (factor XIIa; Ki, Factor XIIa, Table 1): 200 µM and 130 µM
- Ki (plasma kallikrein; Ki, Plasma kallikr., Table 1): 47 µM and 28 µM
- Ki (glandular kallikrein): > 1000 µM
- Ki (trypsin): 0.049 µM

Structure (SMILES): Cc1ccc(S(=O)(=O)N2CCN(C(=O)C(Cc3cccc(C(=N)N)c3)NS(=O)(=O)c3ccc4ccccc4c3)CC2)cc1 (centres unmarked) [AMD 2-Naph SO2 -Tol]
- Ki (factor Xa): 24 µM
- Ki (thrombin [1]; [9]): 0.022 µM
- Ki (tPA): > 1000 µM
- Ki (plasmin; read-out: Ki, Plasmin, Table 1): 15 µM
- Ki (factor XIIa): > 1000 µM
- Ki (plasma kallikrein): 30 µM
- Ki (glandular kallikrein): > 1000 µM

Structure (SMILES): CCS(=O)(=O)N1CCN(C(=O)C(Cc2cccc(C(=N)N)c2)NS(=O)(=O)c2ccc3ccccc3c2)CC1 (centres unmarked) [AMD 2-Naph SO2 Et]
- Ki (factor Xa): 24 µM
- Ki (thrombin [1]; [9]): 0.044 µM
- Ki (tPA): 820 µM
- Ki (plasmin; read-out: Ki, Plasmin, Table 1): 3.5 µM
- Ki (factor XIIa): 212 µM
- Ki (plasma kallikrein): 58 µM
- Ki (glandular kallikrein): > 1000 µM

Structure (SMILES): N=C(N)c1cccc(CC(NS(=O)(=O)c2ccc3ccccc3c2)C(=O)N2CCN(S(=O)(=O)c3ccc4ccccc4c3)CC2)c1 (centres unmarked) [AMD 2-Naph SO2-2-Naph]
- Ki (factor Xa): 25 µM
- Ki (thrombin [1]; [9]): 0.024 µM
- Ki (tPA): > 1000 µM
- Ki (plasmin; read-out: Ki, Plasmin, Table 1): 11 µM
- Ki (factor XIIa): 90 µM
- Ki (plasma kallikrein): 22 µM
- Ki (glandular kallikrein): > 1000 µM

Structure (SMILES): COc1cc(C)c(S(=O)(=O)NC(Cc2cccc(C(=N)N)c2)C(=O)N2CCN(S(C)(=O)=O)CC2)c(C)c1C (centres unmarked) [AMD Mtr SO2 Me]
- Ki (factor Xa): 120 µM
- Ki (thrombin [1]; [9]): 0.032 µM
- Ki (tPA): > 1000 µM
- Ki (plasmin; read-out: Ki, Plasmin, Table 1): 18 µM
- Ki (factor XIIa): 630 µM
- Ki (plasma kallikrein): 150 µM
- Ki (glandular kallikrein): > 1000 µM

Structure (SMILES): CC(=O)N1CCN(C(=O)C(Cc2cccc(C(=N)N)c2)NS(=O)(=O)c2ccc3ccccc3c2)CC1 (centres unmarked) [Compound 1]
- Ki (factor Xa): 48 µM
- concentration at 5 min ([3]; plasma, iv, i.v. 1 mg/kg, 5 min): 1060 ng/mL
- concentration at 0.25 h ([3]; plasma, iv, i.v. 1 mg/kg, 15 min): 394 ng/mL
- concentration at 0.5 h ([3]; plasma, iv, i.v. 1 mg/kg, 30 min): 150 ng/mL
- concentration at 1 h ([3]; plasma, iv, i.v. 1 mg/kg, 60 min): 89 ng/mL
- concentration at 2 h ([3]; plasma, iv, i.v. 1 mg/kg, 120 min): 74 ng/mL
- concentration at 3 h ([3]; plasma, iv, i.v. 1 mg/kg, 180 min): 51 ng/mL
- elimination in words ([3]; i.v.): eliminated at comparable rate
- concentration at 0.5 h ([4]; plasma, oral 50 mg/kg, 30 min): 87 ng/mL
- concentration at 1 h ([4]; plasma, oral 50 mg/kg, 60 min): 63 ng/mL
- concentration at 2 h ([4]; plasma, oral 50 mg/kg, 120 min): 57 ng/mL
- concentration at 3 h ([4]; plasma, oral 50 mg/kg, 180 min): 69 ng/mL
- concentration at 4 h ([4]; plasma, oral 50 mg/kg, 240 min): 91 ng/mL
- concentration at 5 h ([4]; plasma, oral 50 mg/kg, 300 min): 61 ng/mL
- resorption in words ([4]; oral): only slightly resorbed
- concentration at 0.5 h ([5]; plasma, rectal 100 mg/kg, 30 min): 31400 ng/mL
- concentration at 1 h ([5]; plasma, rectal 100 mg/kg, 60 min): 17900 ng/mL
- concentration at 2 h ([5]; plasma, rectal 100 mg/kg, 120 min): 3780 ng/mL
- concentration at 3 h ([5]; plasma, rectal 100 mg/kg, 180 min): 1080 ng/mL
- concentration at 4 h ([5]; plasma, rectal 100 mg/kg, 240 min): 438 ng/mL
- concentration at 5 h ([5]; plasma, rectal 100 mg/kg, 300 min): 220 ng/mL
- concentration at 6 h ([5]; plasma, rectal 100 mg/kg, 360 min): 158 ng/mL
- detectable in plasma after rectal administration ([5]; rectal): ≥ 6 h
- Concentr. to double the Thrombin time [6]: 0.095 µmol/L
- concentration to double the TT [6]: less than 10^-7 mol/1
- Ki (tPA): > 1000 µM
- Ki (plasmin; read-out: Ki, Plasmin, Table 1): 8.4 µM
- Concentr. to double the Prothrombin time [7]: 2.5 µmol/L
- concentration to double the PT [7]: ≤ 1 μmol/1
- Ki (factor XIIa): 210 µM
- Ki (plasma kallikrein): 28 µM
- Ki (glandular kallikrein): > 1000 µM
- Concentr. to double the aPTT [8]: 0.90 µmol/L
- concentration to double the aPTT [8]: ≤ 1 μmol/1

Structure (SMILES): CC(=O)N1CCN(C(=O)C(Cc2cccc(C(=N)N)c2)NS(=O)(=O)c2ccc3c(c2)C(=O)c2ccccc2C3=O)CC1 (centres unmarked) [Compound 4]
- Ki (factor Xa): 4.1 µM
- Ki (thrombin [2]): 0.014 µM
- Concentr. to double the Thrombin time [6]: 0.085 µmol/L
- concentration to double the TT [6]: less than 10^-7 mol/1
- Ki (tPA): > 1000 µM
- Ki (plasmin): 8.6 µM
- Concentr. to double the Prothrombin time [7]: 2.0 µmol/L
- concentration to double the PT [7]: ≤ 1 μmol/1
- Ki (factor XIIa): 52 µM
- Ki (plasma kallikrein): 7 µM
- Ki (glandular kallikrein): > 1000 µM
- Concentr. to double the aPTT [8]: 1.2 µmol/L
- concentration to double the aPTT [8]: ≤ 1 μmol/1
- Ki (trypsin): 0.026 µM

Structure (SMILES): COc1cc(C)c(S(=O)(=O)N[C@@H](Cc2cccc(C(=N)N)c2)C(=O)N2CCN(S(C)(=O)=O)CC2)c(C)c1C [Compound 9]
- Ki (factor Xa): 48 µM
- Ki (thrombin [2]): 0.02 µM
- Concentr. to double the Thrombin time [6]: 0.12 µmol/L
- Ki (tPA): 600 µM
- Ki (plasmin): 8.2 µM
- Concentr. to double the Prothrombin time [7]: 1.1 µmol/L
- Ki (factor XIIa): > 1000 µM
- Ki (plasma kallikrein): 170 µM
- Ki (glandular kallikrein): > 1000 µM
- Concentr. to double the aPTT [8]: 0.57 µmol/L
- Ki (trypsin): 0.86 µM

Structure (SMILES): Cc1c(C)c(S(=O)(=O)N[C@@H](Cc2cccc(C(=N)N)c2)C(=O)N2CCN(S(C)(=O)=O)CC2)c(C)c2c1OC(C)(C)CC2 [Compound 10, Pmc-3-amidino-(L)-phenylalanine-4-methylsulfonyl piperazide hydrochloride]
- Ki (factor Xa): 37 µM
- Ki (thrombin [2]): 0.0053 µM
- Concentr. to double the Thrombin time [6]: 0.10 µmol/L
- Ki (tPA): 600 µM
- Concentr. to double the Prothrombin time [7]: 0.8 µmol/L
- Ki (factor XIIa): > 1000 µM
- Ki (plasma kallikrein): 110 µM
- Ki (glandular kallikrein): > 1000 µM
- Concentr. to double the aPTT [8]: 0.44 µmol/L

Structure (SMILES): CS(=O)(=O)N1CCN(C(=O)C(Cc2cccc(C(=N)N)c2)NS(=O)(=O)c2cccc3ccccc23)CC1 (centres unmarked) [Compound 11]
- Ki (factor Xa): 9.7 µM
- Ki (thrombin [1]; [9]): 0.026 µM
- Ki (thrombin [1]; read-out: Thrombin inhibition Ki, Table 7): 0.026 µM
- Ki (tPA): > 1000 µM
- Ki (plasmin; read-out: Ki, Plasmin, Table 1): 5 µM
- Ki (factor XIIa): > 1000 µM
- Ki (plasma kallikrein): 79 µM
- Ki (glandular kallikrein): > 1000 µM

Source: patent US5607937A, “Piperazides of substituted phenylalanine derivatives as thrombin inhibitors” (priority 1993, dated 1997)
